Reference: US10787462B2, “Heterocyclic compound” (TAKEDA PHARMACEUTICAL COMPANY LIMITED, priority 2015, dated 2020)
Counter-ions that a name gives are not always drawn.

Molecular target: T1, human RIPK1 (1-375) (Homo sapiens, UniProt Q13546)
T1 construct: human RIPK1 (1-375) gene; GST; made in house; host or cells: Sf-9 insect cells
T1 sequence (Q13546 1-375): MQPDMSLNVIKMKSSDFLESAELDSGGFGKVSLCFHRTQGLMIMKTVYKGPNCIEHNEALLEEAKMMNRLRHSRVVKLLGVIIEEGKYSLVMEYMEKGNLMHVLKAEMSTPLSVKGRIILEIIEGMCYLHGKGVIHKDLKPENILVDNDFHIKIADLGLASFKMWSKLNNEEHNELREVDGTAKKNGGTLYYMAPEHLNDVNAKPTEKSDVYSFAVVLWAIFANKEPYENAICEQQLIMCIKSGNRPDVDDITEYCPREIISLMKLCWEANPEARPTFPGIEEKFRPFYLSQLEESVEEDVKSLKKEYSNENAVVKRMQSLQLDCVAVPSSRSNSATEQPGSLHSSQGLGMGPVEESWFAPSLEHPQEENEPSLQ
Assay: Human RIPK1 enzyme inhibitory effect (ADP-Glo Kinase Assay)
Type: biochemical
Settings: well without enzyme = 100% inhibition; for inhibition at 10 µM: read-out: human RIPK1 enzyme inhibitory effect at 10 μM (% inhibition), 10 μM test compound
Procedure, shortened: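 Human RIPK1 (1-375), GST-purified from Sf-9 cells, preincubated 20 min at room temperature with compound in 25 mM HEPES pH 7.5, 10 mM MgCl2, 0.01% Tween-20, 2 mM DTT. Reaction started with 0.6 mM ATP solution (stock), run 120 min at room temperature. ADP measured by ADP-Glo luminescence.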

| inhibition at 10 µM | human RIPK1 enzyme inhibitory effect at 10 μM (% inhibition) (10 μM test compound, 10 µM) | Compound |
| --- | --- | --- |
| 98% | – | CN1C(=O)[C@@H](N2CCn3nc(Cc4ccccc4)nc3C2=O)COc2ccccc21 [Example 8, (3S)-3-(2-benzyl-8-oxo-5,6-dihydro[1,2,4]triazolo[1,5-a]pyrazin-7(8H)-yl)-5-methyl-2,3-dihydro-1,5-benzoxazepin-4(5H)-one] |
| 53% | – | CN1C(=O)[C@@H](N2CCc3cn(CC4CCS(=O)(=O)C4)nc3C2=O)COc2ccccc21 (stereo partly drawn) [Example 163, (3S)-3-(2-((1,1-dioxidotetrahydrothiophen-3-yl)methyl)-7-oxo-2,4,5,7-tetrahydro-6H-pyrazolo[3,4-c]pyridin-6-yl)-5-methyl-2,3-dihydro-1,5-benzoxazepin-4(5H)-one] |
| 101% | – | CNC(=O)c1ccc2c(c1)OC[C@H](N1CCc3c(nn(Cc4ccccc4F)c3Cl)C1=O)C(=O)N2C [Example 47, (3S)-3-(3-chloro-2-(2-fluorobenzyl)-7-oxo-2,4,5,7-tetrahydro-6H-pyrazolo[3,4-c]pyridin-6-yl)-N,5-dimethyl-4-oxo-2,3,4,5-tetrahydro-1,5-benzoxazepine-8-carboxamide] |
| 100% | – | CC1Cc2cn(Cc3ccccc3)nc2C(=O)N1[C@H]1COc2ccccc2N(C)C1=O (stereo partly drawn) [Example 68, (3S)-3-(2-benzyl-5-methyl-7-oxo-2,4,5,7-tetrahydro-6H-pyrazolo[3,4-c]pyridin-6-yl)-5-methyl-2,3-dihydro-1,5-benzoxazepin-4(5H)-one] |
| 100% | – | CN1C(=O)[C@@H](N2CCc3cn(Cc4ccccc4)nc3C2=O)COc2ccc(C#N)cc21 [Example 14, (3S)-3-(2-benzyl-7-oxo-2,4,5,7-tetrahydro-6H-pyrazolo[3,4-c]pyridin-6-yl)-5-methyl-4-oxo-2,3,4,5-tetrahydro-1,5-benzoxazepine-7-carbonitrile] |
| 99% | – | CN1C(=O)[C@@H](N2CCc3cn(Cc4cccc(F)c4)nc3C2=O)COc2ccccc21 [Example 158, (3S)-3-(2-(3-fluorobenzyl)-7-oxo-2,4,5,7-tetrahydro-6H-pyrazolo[3,4-c]pyridin-6-yl)-5-methyl-2,3-dihydro-1,5-benzoxazepin-4(5H)-one] |
| 100% | – | CN1C(=O)[C@@H](N2CCc3c(nn(Cc4ccccc4)c3Cl)C2=O)COc2cc(-c3cnn(C)c3)ccc21 [Example 107, (3S)-3-(2-benzyl-3-chloro-7-oxo-2,4,5,7-tetrahydro-6H-pyrazolo[3,4-c]pyridin-6-yl)-5-methyl-8-(1-methyl-1H-pyrazol-4-yl)-2,3-dihydro-1,5-benzoxazepin-4(5H)-one] |
| 96% | – | CN1C(=O)[C@@H](N2CCc3[nH]c(Cc4ccccc4)nc3C2=O)COc2ccccc21 [Example 55, (3S)-3-(2-benzyl-4-oxo-1,4,6,7-tetrahydro-5H-imidazo[4,5-c]pyridin-5-yl)-5-methyl-2,3-dihydro-1,5-benzoxazepin-4(5H)-one trifluoroacetate] |
| 99% | – | CN1C(=O)[C@@H](N2CCc3cn(Cc4ccccc4)nc3C2=O)CSc2ccccc21 [Example 19, (3R)-3-(2-benzyl-7-oxo-2,4,5,7-tetrahydro-6H-pyrazolo[3,4-c]pyridin-6-yl)-5-methyl-2,3-dihydro-1,5-benzothiazepin-4(5H)-one] |
| – | 87% | CNC(=O)c1ccc2c(c1)CCC(N1CCc3c(nn(Cc4ccccc4)c3Cl)C1=O)C(=O)N2C (stereo not drawn) [Example 137, 3-(2-benzyl-3-chloro-7-oxo-2,4,5,7-tetrahydro-6H-pyrazolo[3,4-c]pyridin-6-yl)-N,1-dimethyl-2-oxo-2,3,4,5-tetrahydro-1H-1-benzazepine-7-carboxamide] |
| 99% | – | CN1C(=O)[C@@H](N2CCc3cn(Cc4ccoc4)nc3C2=O)COc2ccccc21 [Example 34, (3S)-3-(2-(3-furylmethyl)-7-oxo-2,4,5,7-tetrahydro-6H-pyrazolo[3,4-c]pyridin-6-yl)-5-methyl-2,3-dihydro-1,5-benzoxazepin-4(5H)-L-one] |
| 101% | – | Cc1c2c(nn1Cc1ccccc1)C(=O)N([C@H]1COc3cc(Br)ccc3N(C)C1=O)CC2 [Example 84] |
| 98% | – | CN1C(=O)[C@@H](N2CCc3c(nn(Cc4ccccc4)c3CO)C2=O)COc2ccccc21 [Example 52, (3S)-3-(2-benzyl-3-(hydroxymethyl)-7-oxo-2,4,5,7-tetrahydro-6H-pyrazolo[3,4-c]pyridin-6-yl)-5-methyl-2,3-dihydro-1,5-benzoxazepin-4(5H)-one] |
| 99% | – | CN1C(=O)[C@@H](N2CCc3cn(Cc4ccccc4)nc3C2=O)COc2ccc(C(N)=O)cc21 [Example 72, (3S)-3-(2-benzyl-7-oxo-2,4,5,7-tetrahydro-6H-pyrazolo[3,4-c]pyridin-6-yl)-5-methyl-4-oxo-2,3,4,5-tetrahydro-1,5-benzoxazepine-7-carboxamide] |
| 97% | – | CN1C(=O)[C@@H](N2CCc3cn(Cc4cccc(F)c4)nc3C2=O)CSc2ccccc21 [Example 156, (3R)-3-(2-(3-fluorobenzyl)-7-oxo-2,4,5,7-tetrahydro-6H-pyrazolo[3,4-c]pyridin-6-yl)-5-methyl-2,3-dihydro-1,5-benzothiazepin-4(5H)-one] |
| 97% | – | CN1C(=O)C(N2CCc3c(nn(Cc4ccccc4F)c3Cl)C2=O)CCc2nn(C)cc21 (stereo not drawn) [Example 119, 6-(3-chloro-2-(2-fluorobenzyl)-7-oxo-2,4,5,7-tetrahydro-6H-pyrazolo[3,4-c]pyridin-6-yl)-2,4-dimethyl-2,6,7,8-tetrahydropyrazolo[4,3-b]azepin-5(4H)-one] |
| 95% | – | CN1C(=O)[C@@H](N2CCc3cn(CC4CC(F)(F)C4)nc3C2=O)COc2ccccc21 [Example 33, (3S)-3-(2-((3,3-difluorocyclobutyl)methyl)-7-oxo-2,4,5,7-tetrahydro-6H-pyrazolo[3,4-c]pyridin-6-yl)-5-methyl-2,3-dihydro-1,5-benzoxazepin-4(5H)-one] |
| 98% | – | CN1C(=O)[C@@H](N2CCc3c(nn(Cc4ccccc4)c3Br)C2=O)COc2ccccc21 [Example 10, (3S)-3-(2-benzyl-3-bromo-7-oxo-2,4,5,7-tetrahydro-6H-pyrazolo[3,4-c]pyridin-6-yl)-5-methyl-2,3-dihydro-1,5-benzoxazepin-4(5H)-one] |
| 99% | – | CN1C(=O)[C@@H](N2CCc3cn(Cc4ccc(Cl)cc4)nc3C2=O)CSc2ccccc21 [Example 150, (3R)-3-(2-(4-chlorobenzyl)-7-oxo-2,4,5,7-tetrahydro-6H-pyrazolo[3,4-c]pyridin-6-yl)-5-methyl-2,3-dihydro-1,5-benzothiazepin-4(5H)-one] |
| 100% | – | CN1C(=O)[C@@H](N2CCc3cn(Cc4ccccc4)nc3C2=O)COc2ccccc21 [Example 1, (3S)-3-(2-benzyl-7-oxo-2,4,5,7-tetrahydro-6H-pyrazolo[3,4-c]pyridin-6-yl)-5-methyl-2,3-dihydro-1,5-benzoxazepin-4(5H)-one] |
| 98% | – | CN1C(=O)[C@@H](N2CCc3cn(CC4(C)CCC4)nc3C2=O)COc2ccccc21 [Example 173, (3S)-5-methyl-3-(2-((1-methylcyclobutyl)methyl)-7-oxo-2,4,5,7-tetrahydro-6H-pyrazolo[3,4-c]pyridin-6-yl)-2,3-dihydro-1,5-benzoxazepin-4(5H)-one] |
